ChEMBL document CHEMBL1137072, “Peptide deformylase inhibitors with activity against respiratory tract pathogens” (Bioorg Med Chem Lett, 2004)
pIC50: −log10 of the molar value. ≈ marks a conversion by molar mass, not a printed value. Blank lines part the entries; values can stand above or below the molecule they belong to.

Key:
[1] = test system: Haemophilus influenzae; assay: Minimum inhibitory concentration required for primary screening against in-house strain of Haemophilus influenzae tested in vitro; Range- 0.125-2; format: functional
[2] = test system: Moraxella catarrhalis; assay: Minimum inhibitory concentration required for primary screening against in-house strain of Moraxella catarrhalis tested in vitro; format: functional
[3] = target: T1, Peptide deformylase (Escherichia coli, UniProt Q9JN24); assay: Inhibitory activity against Escherichia coli peptide deformylase (PDF) Nickel containing enzyme
T1 sequence (Q9JN24 whole entry): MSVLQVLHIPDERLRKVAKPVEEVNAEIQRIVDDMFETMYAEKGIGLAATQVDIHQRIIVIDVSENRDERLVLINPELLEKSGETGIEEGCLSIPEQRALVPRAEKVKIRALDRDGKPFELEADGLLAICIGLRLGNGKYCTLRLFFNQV

[4] = test system: Streptococcus pneumoniae; assay: Minimum inhibitory concentration required for primary screening against in-house strain of Streptococcus pneumoniae tested in vitro; format: functional
[5] = test system: Streptococcus pneumoniae; assay: Minimum inhibitory concentration required for primary screening against in-house strain of Streptococcus pneumoniae tested in vitro; Range- 2->8; format: functional
[6] = test system: Moraxella catarrhalis; assay: Minimum inhibitory concentration required for primary screening against in-house strain of Moraxella catarrhalis tested in vitro; Range = 0.015-0.12; format: functional
[7] = test system: Haemophilus influenzae; assay: Minimum inhibitory concentration required for primary screening against in-house strain of Haemophilus influenzae tested in vitro; Range- 0.06-8; format: functional
[8] = test system: Haemophilus influenzae; assay: Minimum inhibitory concentration required for primary screening against in-house strain of Haemophilus influenzae tested in vitro; Range- 0.25-2; format: functional
[9] = test system: Streptococcus pneumoniae; assay: Minimum inhibitory concentration required for primary screening against in-house strain of Streptococcus pneumoniae tested in vitro; Range- 0.25-0.5; format: functional
[10] = test system: Moraxella catarrhalis; assay: Minimum inhibitory concentration required for primary screening against in-house strain of Moraxella catarrhalis tested in vitro; Range- 0.125-0.25; format: functional
[11] = test system: Haemophilus influenzae; assay: Minimum inhibitory concentration required for primary screening against in-house strain of Haemophilus influenzae tested in vitro; Range- 0.5-8; format: functional
[12] = test system: Streptococcus pneumoniae; assay: Minimum inhibitory concentration required for primary screening against in-house strain of Streptococcus pneumoniae tested in vitro; Range-0.008-2; format: functional
[13] = test system: Moraxella catarrhalis; assay: Minimum inhibitory concentration required for primary screening against in-house strain of Moraxella catarrhalis tested in vitro; Range- 0.015-0.12; format: functional
[14] = test system: Haemophilus influenzae; assay: Minimum inhibitory concentration required for primary screening against in-house strain of Haemophilus influenzae tested in vitro; Range- 0.5-4; format: functional
[15] = test system: Streptococcus pneumoniae; assay: Minimum inhibitory concentration required for primary screening against in-house strain of Streptococcus pneumoniae tested in vitro; Range- 0.06-2; format: functional
[16] = test system: Staphylococcus capitis; assay: Minimum inhibitory concentration required for primary screening against in-house strain of Staphylococcus capitis tested in vitro; format: functional
[17] = test system: Escherichia coli; assay: Minimum inhibitory concentration required for primary screening against in-house strain of Escherichia coli tested in vitro; format: functional
[18] = test system: Haemophilus influenzae; assay: Minimum inhibitory concentration required for primary screening against in-house strain of Haemophilus influenzae tested in vitro; Range- 0.5-2; format: functional
[19] = test system: Moraxella catarrhalis; assay: Minimum inhibitory concentration required for primary screening against in-house strain of Moraxella catarrhalis tested in vitro; Range = 0.125-0.25; format: functional
[20] = test system: Moraxella catarrhalis; assay: Minimum inhibitory concentration required for primary screening against in-house strain of Moraxella catarrhalis tested in vitro; Range- 0.008-0.12; format: functional
[21] = test system: Haemophilus influenzae; assay: Minimum inhibitory concentration required for primary screening against in-house strain of Haemophilus influenzae tested in vitro; Range- 0.12-16; format: functional
[22] = test system: Streptococcus pneumoniae; assay: Minimum inhibitory concentration required for primary screening against in-house strain of Streptococcus pneumoniae tested in vitro; Range- 0.008-1; format: functional
[23] = test system: Streptococcus pneumoniae; assay: Minimum inhibitory concentration required for primary screening against in-house strain of Streptococcus pneumoniae tested in vitro; Range- 0.25-1; format: functional
[24] = test system: Haemophilus influenzae; assay: Minimum inhibitory concentration required for primary screening against in-house strain of Haemophilus influenzae tested in vitro; Range- 2-4; format: functional
[25] = test system: Haemophilus influenzae; assay: Minimum inhibitory concentration required for primary screening against in-house strain of Haemophilus influenzae tested in vitro; Range-0.125-2; format: functional
[26] = test system: Streptococcus pneumoniae; assay: Minimum inhibitory concentration required for primary screening against in-house strain of Streptococcus pneumoniae tested in vitro; Range- 0.5-1; format: functional

Structure (SMILES): CC(C)(C)[C@H](NC(=O)[C@H](CC1CCCC1)CN(O)C=O)C(=O)c1ccc(N2CCC[C@H]2CO)c(F)c1
- MIC [1]: < 2 µg/mL
- MIC [2]: < 0.125 µg/mL
- pIC50 [3]: 8.70
- MIC [4]: 0.25 µg/mL (≈ 0.494 µM)

- MIC90 [5]: > 16 µg/mL
- MIC90 [6]: 0.12 µg/mL (≈ 0.364 µM)
- MIC90 [7]: 2 µg/mL (≈ 6.07 µM)
Structure (SMILES): CCCC[C@H](CN(O)C=O)C(=O)N[C@H](C(=O)N(C)C)C(C)(C)C

Structure (SMILES): CC(C)(C)[C@H](NC(=O)[C@H](CC1CCCC1)CN(O)C=O)C(=O)c1ccc(N2CCC(O)CC2)cc1
- MIC [8]: < 2 µg/mL
- MIC [2]: < 0.125 µg/mL
- pIC50 [3]: 8.70
- MIC [4]: 0.25 µg/mL (≈ 0.513 µM)

Structure (SMILES): CCCC[C@H](CN(O)C=O)C(=O)N[C@H](C(=O)c1ccccn1)C(C)(C)C
- pIC50 [3]: 8.52

Structure (SMILES): CC(C)(C)[C@H](NC(=O)[C@H](CC1CCCC1)CN(O)C=O)C(=O)c1cc(F)c(F)cc1N1CCC(O)CC1
- MIC [8]: < 2 µg/mL
- MIC [2]: < 0.125 µg/mL
- MIC [9]: < 0.5 µg/mL
- pIC50 [3]: 9.00

Structure (SMILES): CC(C)(C)[C@H](NC(=O)[C@H](CC1CCCC1)CN(O)C=O)C(=O)c1ccc(N2CCN(CCN3CCCC3)CC2)c(F)c1
- MIC [9]: < 0.5 µg/mL
- MIC [10]: < 0.25 µg/mL
- pIC50 [3]: 8.05
- MIC [11]: < 8 µg/mL

- MIC90 [12]: 1 µg/mL
Structure (SMILES): CC1(C)S[C@@H]2[C@H](NC(=O)Cc3ccccc3)C(=O)N2[C@H]1C(=O)[O-].[Na+] [PENICILLIN G SODIUM]

Structure (SMILES): CC(C)(C)[C@H](NC(=O)[C@H](CC1CCCC1)CN(O)C=O)C(=O)c1cc(F)c(F)cc1N1CCOCC1
- MIC [8]: < 2 µg/mL
- MIC90 [13]: 0.12 µg/mL (≈ 0.235 µM)
- MIC [2]: < 0.125 µg/mL
- MIC [9]: < 0.5 µg/mL
- pIC50 [3]: 9.30
- MIC90 [14]: 2 µg/mL (≈ 3.92 µM)
- MIC90 [15]: 1 µg/mL (≈ 1.96 µM)

Structure (SMILES): CCCC[C@H](CN(O)C=O)C(=O)N[C@H](C(=O)c1ccc(C#N)cc1)C(C)(C)C
- MIC [16]: 3.1 µM (≈ 1.2 µg/mL)
- pIC50 [3]: 8.15
- MIC [17]: 6.25 µM (≈ 2.42 µg/mL)

Structure (SMILES): CC(C)(C)[C@H](NC(=O)[C@H](CC1CCCC1)CN(O)C=O)C(=O)c1ccc(O)cc1
- MIC [16]: 3.1 µM (≈ 1.25 µg/mL)
- pIC50 [3]: 8.70
- MIC [17]: 6.25 µM (≈ 2.53 µg/mL)

Structure (SMILES): CCCC[C@H](CN(O)C=O)C(=O)N[C@H](C(=O)c1ccc(N)cc1)C(C)(C)C
- MIC [16]: 12 µM (≈ 4.53 µg/mL)
- pIC50 [3]: 8.10

- MIC [2]: < 0.125 µg/mL
- MIC [18]: < 2 µg/mL
- MIC [4]: 0.25 µg/mL (≈ 0.477 µM)
Structure (SMILES): CC(C)(C)[C@H](NC(=O)[C@H](CC1CCCC1)CN(O)C=O)C(=O)c1cc(F)c(F)cc1N1CCC[C@H]1CO

Structure (SMILES): CC(C)(C)[C@H](NC(=O)[C@H](CC1CCCC1)CN(O)C=O)C(=O)c1ccc(N2CCN(CCN3CCOCC3)CC2)cc1
- MIC [2]: < 0.125 µg/mL
- MIC [9]: < 0.5 µg/mL
- pIC50 [3]: 8.70
- MIC [18]: < 2 µg/mL

Structure (SMILES): CC(C)(C)[C@H](NC(=O)[C@H](CC1CCCC1)CN(O)C=O)C(=O)c1cc(F)c(F)cc1N1CCN(CCN2CCCC2)CC1
- MIC [9]: < 0.5 µg/mL
- pIC50 [3]: 8.70
- MIC [14]: < 4 µg/mL
- MIC [19]: < 0.25 µg/mL

- MIC [16]: 12.5 µM (≈ 4.53 µg/mL)
- MIC [17]: 12.5 µM (≈ 4.53 µg/mL)
Structure (SMILES): CCCC[C@H](CN(O)C=O)C(=O)N[C@H](C(=O)c1ccccc1)C(C)(C)C

- MIC90 [20]: 0.12 µg/mL
- MIC90 [21]: 1 µg/mL
- MIC90 [22]: 1 µg/mL
Structure (SMILES): CC1(C)S[C@@H]2[C@H](NC(=O)[C@H](N)c3ccc(O)cc3)C(=O)N2[C@H]1C(=O)O.O=C(O)[C@H]1/C(=C/CO)O[C@@H]2CC(=O)N21

Structure (SMILES): CC(C)(C)[C@H](NC(=O)[C@H](CC1CCCC1)CN(O)C=O)C(=O)c1cc(F)c(F)cc1N1CCN(CCN2CCOCC2)CC1
- MIC [10]: < 0.25 µg/mL
- MIC [23]: < 1 µg/mL
- pIC50 [3]: 8.70
- MIC [24]: < 4 µg/mL

Structure (SMILES): CCCC[C@H](CN(O)C=O)C(=O)N[C@H](C(=O)c1ccc(NC(=O)C(F)(F)F)cc1)C(C)(C)C
- pIC50 [3]: 7.70

Structure (SMILES): CC(C)(C)[C@H](NC(=O)[C@H](CC1CCCC1)CN(O)C=O)C(=O)c1ccc(F)cc1
- pIC50 [3]: 8.52

- MIC [2]: < 0.125 µg/mL
- MIC [25]: < 2 µg/mL
- MIC [26]: < 1 µg/mL
Structure (SMILES): CC(C)(C)[C@H](NC(=O)[C@H](CC1CCCC1)CN(O)C=O)C(=O)c1ccc(N2CCN(CCO)CC2)c(F)c1
